This passage reports logP results from the OPERA property sets (Mansouri et al. 2018).

`CC(=O)NNC(=O)Nc1ccc(C#N)cc1` showed a logP of 0.38.

As for `COc1ccc(NC(=O)NNC(C)=O)cc1`, the logP came to 0.11.

For `CC(=O)NNC(=O)Nc1ccc(O)cc1`, the logP is -0.79.

For `CC(=O)NNC(=O)Nc1cccc([N+](=O)[O-])c1`, the logP is 0.67.

`CCOc1ccc(NC(=O)NNC(C)=O)cc1`: the logP worked out at 0.51.

Take `CC(=O)NNC(=O)Nc1ccccc1`: the logP was found to be 0.25.

For `CC(=O)NNC(=O)Nc1ccc(Oc2ccccc2)cc1`, the logP turned out to be 2.01.

Take `CC(=O)NNC(=O)Nc1ccc(Br)cc1`: the logP worked out at 1.38.

With `CC(=O)NNC(=O)Nc1ccc([N+](=O)[O-])cc1`, the logP was determined as 0.77.

`CC(=O)NNC(=O)Nc1ccc(N(C)C)cc1` had a logP of 0.11.

Consider `CC(=O)NNC(=O)Nc1cccc(Cl)c1`, for which the logP stood at 1.33.

Regarding `CC(=O)NNC(=O)Nc1cccc(I)c1`, the logP was found to be 1.71.

`CC(=O)NNC(=O)Nc1ccc(I)cc1` registered a logP of 1.65.

Compound `COc1cccc(NC(=O)NNC(C)=O)c1` registered a logP of 0.33.

Turning to `CC(=O)NNC(=O)Nc1ccc(C)cc1`, the logP is 0.67.

As to `CC(=O)NNC(=O)Nc1cccc(F)c1`, the logP amounted to 0.73.

As to `CC(=O)NNC(=O)Nc1ccc(F)cc1`, the logP stood at 0.45.

For the compound `CC(=O)NNC(=O)Nc1cccc(C)c1`, the logP was determined as 0.75.

In the case of `CC(=O)NNC(=O)Nc1cccc(C(F)(F)F)c1`, the logP stood at 1.59.

In turn, `CC(=O)NNC(=O)Nc1cccc(Br)c1` came in with a logP of 1.48.

`CC(=O)NNC(=O)Nc1ccc(C(C)(C)C)cc1` showed a logP of 2.08.

For the compound `CC(=O)NNC(=O)Nc1ccc(Cl)cc1`, the logP was found to be 1.12.
